Source: article PMC5228125 (Scientific Reports, 2017)

Molecular target: SARS-CoV PLpro (Severe acute respiratory syndrome coronavirus, UniProt P0C6X7)
Type: cell-based

Structure (SMILES): CC(=O)Nc1cccc(CNC(=O)C2CCN([C@H](C)c3cccc4ccccc34)CC2)c1 [compound 3e]
- Effect on SARS-CoV PLpro activity in the biosensor assay: blocks
